Results from patent US7786141B2 (Vertex Pharmaceuticals Incorporated, priority 2004, dated 2010).

Key:
M1 muscarinic receptor = biological target: T1, M1 muscarinic receptor (Homo sapiens, UniProt P11229); assay: Functional mobilization of intracellular calcium (FLIPR) in M1-CHO cells; type: cell-based; conditions: Table 4; for Emax: 100% efficacy is the maximum response obtained with the Carbachol control; for M1 Activity: M1 receptor, calcium mobilization (FLIPR)
T1 construct: expressed in transfected cells; host or cells: CHO (M1-CHO)
T1 sequence (P11229 1-460): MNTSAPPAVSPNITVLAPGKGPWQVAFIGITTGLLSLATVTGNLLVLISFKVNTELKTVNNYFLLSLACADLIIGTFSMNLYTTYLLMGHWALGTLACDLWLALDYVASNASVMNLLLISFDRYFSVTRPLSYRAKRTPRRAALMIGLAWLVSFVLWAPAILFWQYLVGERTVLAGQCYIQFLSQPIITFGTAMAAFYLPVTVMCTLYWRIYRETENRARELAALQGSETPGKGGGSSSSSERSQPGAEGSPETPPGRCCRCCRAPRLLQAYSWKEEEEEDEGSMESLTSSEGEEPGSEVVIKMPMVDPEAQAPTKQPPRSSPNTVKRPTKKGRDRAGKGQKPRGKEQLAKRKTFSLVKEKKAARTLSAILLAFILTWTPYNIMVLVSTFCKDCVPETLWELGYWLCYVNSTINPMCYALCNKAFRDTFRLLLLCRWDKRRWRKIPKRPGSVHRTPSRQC
Summary of the method: (§1)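 Intracellular calcium rise is measured by FLIPR fluorescence over 60 sec in CHO cells carrying human M1 or M4 receptors. Compounds are tested alone as agonists, or pre-incubated 15 min (or co-applied) ahead of carbachol at its EC80 to detect inhibition.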

M4 muscarinic receptor = biological target: T2, M4 muscarinic receptor (Homo sapiens, UniProt P08173); assay: Functional mobilization of intracellular calcium (FLIPR) in M4-CHO cells; type: cell-based; conditions: Table 4; for Emax: 100% efficacy is the maximum response obtained with the Carbachol control; for M4 Activity: M4 receptor, calcium mobilization (FLIPR)
T2 construct: expressed in transfected cells; host or cells: CHO (M4-CHO)
T2 sequence (P08173 1-479): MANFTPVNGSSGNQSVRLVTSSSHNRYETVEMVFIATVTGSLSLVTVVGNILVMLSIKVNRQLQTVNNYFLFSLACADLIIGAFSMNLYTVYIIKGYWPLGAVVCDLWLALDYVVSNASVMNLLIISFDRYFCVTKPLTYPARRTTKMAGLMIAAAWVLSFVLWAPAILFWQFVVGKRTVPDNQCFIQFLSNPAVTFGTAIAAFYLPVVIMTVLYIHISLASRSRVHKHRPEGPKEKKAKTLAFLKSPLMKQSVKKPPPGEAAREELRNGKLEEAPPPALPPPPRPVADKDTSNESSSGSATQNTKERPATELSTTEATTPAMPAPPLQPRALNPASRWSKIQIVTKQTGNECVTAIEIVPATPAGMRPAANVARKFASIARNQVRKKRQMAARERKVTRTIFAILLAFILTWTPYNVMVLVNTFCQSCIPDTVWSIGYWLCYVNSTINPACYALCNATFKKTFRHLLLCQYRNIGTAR
Summary of the method: as §1

## Cc1ccc2c(c1)/C(=N/O)CC21CCN(CC2C[C@H]3CCC2C3)CC1 (stereo partly shown) [compound 935]
M1 muscarinic receptor
  Emax: 25 to 100%
  M1 Activity: x (activity was measured to be greater than 5.0 μM)
M4 muscarinic receptor
  Emax: 25 to 100%
  M4 Activity: xxx (activity was measured to be less than 2.0 μM)

## COC(=O)N1CCCC(CCN2CCC3(CCC(NC(C)=O)c4ccccc43)CC2)C1 (stereo not shown) [compound 936]
M1 muscarinic receptor
  Emax: 25 to 100%
  M1 Activity: xxx (activity was measured to be less than 2.0 μM)
M4 muscarinic receptor
  Emax: < 25%
  M4 Activity: x (activity was measured to be greater than 5.0 μM)

## CN(C)C(=O)N1CC2(CCN(C3CCN(C(=O)OCC(F)(F)F)CC3)CC2)c2cc(F)ccc21 [compound 938]
M1 muscarinic receptor
  Emax: 25 to 100%
  M1 Activity: xxx (activity was measured to be less than 2.0 μM)
M4 muscarinic receptor
  Emax: 25 to 100%
  M4 Activity: xxx (activity was measured to be less than 2.0 μM)

## CC#CCOC(=O)N1CC[C@@H](CN2CCC3(CC2)CN(C(=O)N(C)C)c2ccc(F)cc23)C1 [compound 939]
M1 muscarinic receptor
  Emax: 25 to 100%
  M1 Activity: xxx (activity was measured to be less than 2.0 μM)
M4 muscarinic receptor
  Emax: 25 to 100%
  M4 Activity: xxx (activity was measured to be less than 2.0 μM)

## CCOC(=O)N1CC[C@H](CN2CCC3(CC2)CN(C(C)=O)c2cccc(C)c23)C1 [compound 940]
M1 muscarinic receptor
  Emax: 25 to 100%
  M1 Activity: xxx (activity was measured to be less than 2.0 μM)
M4 muscarinic receptor
  Emax: 25 to 100%
  M4 Activity: xxx (activity was measured to be less than 2.0 μM)

## CCOC(=O)N1CCC(N2CCC3(CC2)CN(c2cccnc2)c2ccc(F)cc23)CC1 [compound 941]
M1 muscarinic receptor
  Emax: 25 to 100%
  M1 Activity: xxx (activity was measured to be less than 2.0 μM)
M4 muscarinic receptor
  Emax: 25 to 100%
  M4 Activity: xxx (activity was measured to be less than 2.0 μM)

## CCOC(=O)N1CCC(N2CCC3(CC2)CN(c2ccc(C)nn2)c2ccc(F)cc23)CC1 [compound 942]
M1 muscarinic receptor
  Emax: > 100%
  M1 Activity: xxx (activity was measured to be less than 2.0 μM)
M4 muscarinic receptor
  Emax: 25 to 100%
  M4 Activity: xxx (activity was measured to be less than 2.0 μM)

## CC(=O)N1CC2(CCN(C3CCN(c4nc(C)ns4)CC3)CC2)c2cc(F)ccc21 [compound 943]
M1 muscarinic receptor
  Emax: 25 to 100%
  M1 Activity: xxx (activity was measured to be less than 2.0 μM)
M4 muscarinic receptor
  Emax: 25 to 100%
  M4 Activity: xxx (activity was measured to be less than 2.0 μM)

## CCNC(=O)N1CC2(CCN(C3CCN(C(=O)OCC)CC3)CC2)c2ccccc21 [compound 944]
M1 muscarinic receptor
  Emax: 25 to 100%
  M1 Activity: xxx (activity was measured to be less than 2.0 μM)
M4 muscarinic receptor
  Emax: 25 to 100%
  M4 Activity: xxx (activity was measured to be less than 2.0 μM)

## O=C1CCCN1[C@H]1CCC2(CCN(C3CCCCCC3)CC2)c2ccccc21 [compound 945]
M1 muscarinic receptor
  Emax: 25 to 100%
  M1 Activity: xxx (activity was measured to be less than 2.0 μM)
M4 muscarinic receptor
  Emax: 25 to 100%
  M4 Activity: xxx (activity was measured to be less than 2.0 μM)

## O=C(N[C@H]1CC2(CCN(CC3CCCCC3)CC2)c2ccccc21)N1CCCC1 [compound 946]
M1 muscarinic receptor
  Emax: < 25%
  M1 Activity: x (activity was measured to be greater than 5.0 μM)
M4 muscarinic receptor
  Emax: < 25%
  M4 Activity: xxx (activity was measured to be less than 2.0 μM)

## C#CCOC(=O)N1CCC(N2CCC3(CC2)CN(C(C)=O)c2ccccc23)CC1 [compound 947]
M1 muscarinic receptor
  Emax: > 100%
  M1 Activity: xxx (activity was measured to be less than 2.0 μM)
M4 muscarinic receptor
  Emax: 25 to 100%
  M4 Activity: xxx (activity was measured to be less than 2.0 μM)

## CCOC(=O)N1CCC(CN2CCC3(CC2)CN(C(C)=O)c2ccc(S(C)(=O)=O)cc23)CC1 [compound 948]
M1 muscarinic receptor
  Emax: < 25%
  M1 Activity: x (activity was measured to be greater than 5.0 μM)
M4 muscarinic receptor
  Emax: < 25%
  M4 Activity: x (activity was measured to be greater than 5.0 μM)

## CCOC(=O)N1C2CCC1CC(N1CCC3(CC1)CC(=O)c1cc(C)ccc13)C2 (stereo not shown) [compound 949]
M1 muscarinic receptor
  Emax: 25 to 100%
  M1 Activity: xxx (activity was measured to be less than 2.0 μM)
M4 muscarinic receptor
  Emax: 25 to 100%
  M4 Activity: xxx (activity was measured to be less than 2.0 μM)

## CCOC(=O)N1CCC(N2CCC3(CC2)CN(C(C)=O)c2ccc(-c4ccc(F)cc4)cc23)CC1 [compound 950]
M1 muscarinic receptor
  Emax: 25 to 100%
  M1 Activity: xx (activity was measured to be between 2.0 μM and 5.0 μM)
M4 muscarinic receptor
  Emax: 25 to 100%
  M4 Activity: xx (activity was measured to be between 2.0 μM and 5.0 μM)

## CCOC(=O)N1CCC(N2CCC3(CC2)CN(C2CCC(=O)CC2)c2ccc(F)cc23)CC1 [compound 951]
M1 muscarinic receptor
  Emax: 25 to 100%
  M1 Activity: xxx (activity was measured to be less than 2.0 μM)
M4 muscarinic receptor
  Emax: 25 to 100%
  M4 Activity: xxx (activity was measured to be less than 2.0 μM)

## CCOC(=O)N1CCC(N2CCC3(CC2)CNc2ccc(F)cc23)CC1 [compound 952]
M1 muscarinic receptor
  Emax: 25 to 100%
  M1 Activity: xxx (activity was measured to be less than 2.0 μM)
M4 muscarinic receptor
  Emax: 25 to 100%
  M4 Activity: xxx (activity was measured to be less than 2.0 μM)

## CC(=O)N1CC2(CCN(C3CCN(c4cnc(C)c(C)n4)CC3)CC2)c2ccccc21 [compound 953]
M1 muscarinic receptor
  Emax: 25 to 100%
  M1 Activity: xx (activity was measured to be between 2.0 μM and 5.0 μM)
M4 muscarinic receptor
  Emax: 25 to 100%
  M4 Activity: xxx (activity was measured to be less than 2.0 μM)

## COCCOC(=O)N1CCCC(N2CCC3(CC2)CN(C(=O)N(C)C)c2ccc(F)cc23)CC1 (stereo not shown) [compound 954]
M1 muscarinic receptor
  Emax: 25 to 100%
  M1 Activity: xxx (activity was measured to be less than 2.0 μM)
M4 muscarinic receptor
  Emax: 25 to 100%
  M4 Activity: xxx (activity was measured to be less than 2.0 μM)

## O=C(N[C@H]1CC2(CCN(CC3CCCCC3)CC2)c2ccccc21)C1CC1 [compound 955]
M1 muscarinic receptor
  Emax: 25 to 100%
  M1 Activity: xxx (activity was measured to be less than 2.0 μM)
M4 muscarinic receptor
  Emax: 25 to 100%
  M4 Activity: xxx (activity was measured to be less than 2.0 μM)

## CCOC(=O)N1CCC(N2CCC3(CC2)CN(C(C)=O)c2c(-c4ccsc4)cccc23)CC1 [compound 956]
M1 muscarinic receptor
  Emax: 25 to 100%
  M1 Activity: x (activity was measured to be greater than 5.0 μM)
M4 muscarinic receptor
  Emax: < 25%
  M4 Activity: x (activity was measured to be greater than 5.0 μM)

## CN(C)C(=O)N1CC2(CCN(C3CCN(c4nccs4)CC3)CC2)c2cc(F)ccc21 [compound 957]
M1 muscarinic receptor
  Emax: 25 to 100%
  M1 Activity: xxx (activity was measured to be less than 2.0 μM)
M4 muscarinic receptor
  Emax: 25 to 100%
  M4 Activity: xxx (activity was measured to be less than 2.0 μM)

## COCCN1CC2(CCN(C3CCCCCC3)CC2)c2cc(F)ccc21 [compound 958]
M1 muscarinic receptor
  Emax: 25 to 100%
  M1 Activity: xxx (activity was measured to be less than 2.0 μM)
M4 muscarinic receptor
  Emax: 25 to 100%
  M4 Activity: xxx (activity was measured to be less than 2.0 μM)

## CCOC(=O)N1CCC(N2CCC3(CC2)CN(C(=O)N2CCCC2)c2ccccc23)CC1 [compound 959]
M1 muscarinic receptor
  Emax: 25 to 100%
  M1 Activity: xx (activity was measured to be between 2.0 μM and 5.0 μM)
M4 muscarinic receptor
  Emax: 25 to 100%
  M4 Activity: xxx (activity was measured to be less than 2.0 μM)

## CC(C)N(C(=O)N[C@H]1CC2(CCN(C3CC4CC[C@@H]3C4)CC2)c2ccccc21)C(C)C (stereo partly shown) [compound 960]
M1 muscarinic receptor
  Emax: < 25%
  M1 Activity: x (activity was measured to be greater than 5.0 μM)
M4 muscarinic receptor
  Emax: 25 to 100%
  M4 Activity: xx (activity was measured to be between 2.0 μM and 5.0 μM)

## CCOC(=O)N1CCC(N2CCC3(CC[C@H](NC(=O)N(C)C)c4ccccc43)CC2)CC1 [compound 961]
M1 muscarinic receptor
  Emax: 25 to 100%
  M1 Activity: xxx (activity was measured to be less than 2.0 μM)
M4 muscarinic receptor
  Emax: 25 to 100%
  M4 Activity: xxx (activity was measured to be less than 2.0 μM)

## CC(=O)NC1CCC2(CCN(CCC3CCN(C(=O)OCC(C)C)CC3)CC2)c2ccccc21 (stereo not shown) [compound 962]
M1 muscarinic receptor
  Emax: < 25%
  M1 Activity: x (activity was measured to be greater than 5.0 μM)
M4 muscarinic receptor
  Emax: < 25%
  M4 Activity: x (activity was measured to be greater than 5.0 μM)

## CN(C)C(=O)N1CC2(CCN(C3CCN(c4ncnc5ccsc45)CC3)CC2)c2cc(F)ccc21 [compound 965]
M1 muscarinic receptor
  Emax: 25 to 100%
  M1 Activity: x (activity was measured to be greater than 5.0 μM)
M4 muscarinic receptor
  Emax: 25 to 100%
  M4 Activity: xxx (activity was measured to be less than 2.0 μM)
